Experimental data from patent publication US10351594B2, “Process for preparing compounds having triple activities of thrombolysis, antithrombosis, and radical scavenging” (Shanghai Lumosa Therapeutics Co., Ltd., priority 2013, dated 2019).
Where two headings read alike, the source gives them in different places.

Test system: stroke rats
[1] = 1 μmol/kg 5Ak after 4 hours from stroke onset, 1st day
[2] = 1 μmol/kg 5Ak after 4 hours from stroke onset, 2nd day
[3] = 1 μmol/kg 5Ak after 4 hours from stroke onset, 3rd day
[4] = 1 μmol/kg 5Ak after 4 hours from stroke onset, 4th day
[5] = 1 μmol/kg 5Ak after 4 hours from stroke onset, 5th day
[6] = 1 μmol/kg 5Ak after 4 hours from stroke onset, 6th day
[7] = 1 μmol/kg 5Ak after 6 hours from stroke onset, 1st day
[8] = 1 μmol/kg 5Ak after 6 hours from stroke onset, 2nd day
[9] = 1 μmol/kg 5Ak after 6 hours from stroke onset, 3rd day
[10] = 1 μmol/kg 5Ak after 6 hours from stroke onset, 4th day
[11] = 1 μmol/kg 5Ak after 6 hours from stroke onset, 5th day
[12] = 1 μmol/kg 5Ak after 6 hours from stroke onset, 6th day
[13] = 1 μmol/kg 5Ak after 24 hours from stroke onset, 1st day
[14] = 1 μmol/kg 5Ak after 24 hours from stroke onset, 2nd day
[15] = 1 μmol/kg 5Ak after 24 hours from stroke onset, 3rd day
[16] = 1 μmol/kg 5Ak after 24 hours from stroke onset, 4th day
[17] = 1 μmol/kg 5Ak after 24 hours from stroke onset, 5th day
[18] = 1 μmol/kg 5Ak after 24 hours from stroke onset, 6th day
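Also: male SD rats with thrombus-induced cerebral embolism via internal carotid artery, scored daily by Zealonga neurological deficit scale (0 no deficit to 5 death), lower score better.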

Procedure: The therapeutic effect was evaluated by neurological functional scores. The lower the score was, the better the therapeutic effect was. A 10% chloral hydrate solution was injected intraperitoneally into male SD rats at a dosage of 400 mg/kg body weight for anesthesia. A longitudinal incision was made at the center of the neck, and the right common carotid artery trunk was separated (about 3 cm in length). External carotid artery branches were each separated and ligated at the hyoid level, and the internal carotid artery was separated from the swollen part of the neck. The incision of the internal carotid artery and the proximal end of the common carotid artery were clipped respectively with noninvasive arterial clips, and the distal end of the external carotid artery was ligated. A catheter containing 0.5 mL thrombus suspension in normal saline was inserted in the external carotid artery trunk. When the clip on the internal carotid artery was released, the 0.5 mL thrombus suspension in normal saline in the catheter slowly flew from the external carotid artery to its proximal end, and then was injected into the arteries in brain through the internal carotid artery. Subsequently, the proximal end of the internal carotid artery was ligated, the arterial clips on the internal carotid artery and the common carotid artery were released, and blood flow was restored. After the wound was stitched up, 20,000 IU penicillin was intramuscularly injected for prevention from infection. […] Self-comparison was performed each day, and the neurological deficit degree was evaluated by the Zealonga method. A score of 0 indicated no sign of loss in neural function, 1 indicated the front limbs on the undamaged side could not stretch out, 2 indicated walking toward the undamaged side, 3 indicated tail-chasing walking in circles toward the undamaged side, 4 indicated involuntary walking with disturbance of consciousness, and 5 indicated death.

C[C@H](NC(=O)[C@@H]1CCCN1)C(=O)N[C@@H](CCCCN)C(=O)NCCCC[C@H](NC(=O)[C@@H]1Cc2cc(O)c(O)cc2C(C)(C)N1)C(=O)O [Compound 5Ak, 3S-6,7-dihydroxy-1,1-dimethyl-1,2,3,4-tetrahydro-isoquinoline-3-acyl-Lys(Pro-Ala-Lys)]
therapeutic effect, result in words (1 μmol/kg 5Ak after 4 hours from stroke onset): definite therapeutic effect
Daily neural function scores, number of rats under 0 score [1]: 3
Daily neural function scores, number of rats under 1 score [1]: 5
Daily neural function scores, number of rats under 2 scores [1]: 1
Daily neural function scores, number of rats under 3 scores [1]: 1
Daily neural function scores, number of rats under 4 scores [1]: 0
Daily neural function scores, number of rats under 5 scores [1]: 0
Daily neural function scores, number of rats under 0 score [2]: 5
Daily neural function scores, number of rats under 1 score [2]: 4
Daily neural function scores, number of rats under 2 scores [2]: 1
Daily neural function scores, number of rats under 3 scores [2]: 0
Daily neural function scores, number of rats under 4 scores [2]: 0
Daily neural function scores, number of rats under 5 scores [2]: 0
Daily neural function scores, number of rats under 0 score [3]: 3
Daily neural function scores, number of rats under 1 score [3]: 6
Daily neural function scores, number of rats under 2 scores [3]: 1
Daily neural function scores, number of rats under 3 scores [3]: 0
Daily neural function scores, number of rats under 4 scores [3]: 0
Daily neural function scores, number of rats under 5 scores [3]: 0
Daily neural function scores, number of rats under 0 score [4]: 8
Daily neural function scores, number of rats under 1 score [4]: 1
Daily neural function scores, number of rats under 2 scores [4]: 1
Daily neural function scores, number of rats under 3 scores [4]: 0
Daily neural function scores, number of rats under 4 scores [4]: 0
Daily neural function scores, number of rats under 5 scores [4]: 0
Daily neural function scores, number of rats under 0 score [5]: 6
Daily neural function scores, number of rats under 1 score [5]: 4
Daily neural function scores, number of rats under 2 scores [5]: 0
Daily neural function scores, number of rats under 3 scores [5]: 0
Daily neural function scores, number of rats under 4 scores [5]: 0
Daily neural function scores, number of rats under 5 scores [5]: 0
Daily neural function scores, number of rats under 0 score [6]: 8
Daily neural function scores, number of rats under 1 score [6]: 2
Daily neural function scores, number of rats under 2 scores [6]: 0
Daily neural function scores, number of rats under 3 scores [6]: 0
Daily neural function scores, number of rats under 4 scores [6]: 0
Daily neural function scores, number of rats under 5 scores [6]: 0
therapeutic effect, result in words (1 μmol/kg 5Ak after 6 hours from stroke onset): definite therapeutic effect
Daily neural function scores, number of rats under 0 score [7]: 0
Daily neural function scores, number of rats under 1 score [7]: 4
Daily neural function scores, number of rats under 2 scores [7]: 4
Daily neural function scores, number of rats under 3 scores [7]: 2
Daily neural function scores, number of rats under 4 scores [7]: 0
Daily neural function scores, number of rats under 5 scores [7]: 0
Daily neural function scores, number of rats under 0 score [8]: 0
Daily neural function scores, number of rats under 1 score [8]: 7
Daily neural function scores, number of rats under 2 scores [8]: 2
Daily neural function scores, number of rats under 3 scores [8]: 1
Daily neural function scores, number of rats under 4 scores [8]: 0
Daily neural function scores, number of rats under 5 scores [8]: 0
Daily neural function scores, number of rats under 0 score [9]: 1
Daily neural function scores, number of rats under 1 score [9]: 6
Daily neural function scores, number of rats under 2 scores [9]: 2
Daily neural function scores, number of rats under 3 scores [9]: 1
Daily neural function scores, number of rats under 4 scores [9]: 0
Daily neural function scores, number of rats under 5 scores [9]: 0
Daily neural function scores, number of rats under 0 score [10]: 4
Daily neural function scores, number of rats under 1 score [10]: 4
Daily neural function scores, number of rats under 2 scores [10]: 1
Daily neural function scores, number of rats under 3 scores [10]: 0
Daily neural function scores, number of rats under 4 scores [10]: 0
Daily neural function scores, number of rats under 5 scores [10]: 1
Daily neural function scores, number of rats under 0 score [11]: 7
Daily neural function scores, number of rats under 1 score [11]: 2
Daily neural function scores, number of rats under 2 scores [11]: 0
Daily neural function scores, number of rats under 3 scores [11]: 0
Daily neural function scores, number of rats under 4 scores [11]: 0
Daily neural function scores, number of rats under 5 scores [11]: 0
Daily neural function scores, number of rats under 0 score [12]: 6
Daily neural function scores, number of rats under 1 score [12]: 3
Daily neural function scores, number of rats under 2 scores [12]: 0
Daily neural function scores, number of rats under 3 scores [12]: 0
Daily neural function scores, number of rats under 4 scores [12]: 0
Daily neural function scores, number of rats under 5 scores [12]: 0
therapeutic effect, result in words (1 μmol/kg 5Ak after 24 hours from stroke onset): definite therapeutic effect
Daily neural function scores, number of rats under 0 score [13]: 1
Daily neural function scores, number of rats under 1 score [13]: 4
Daily neural function scores, number of rats under 2 scores [13]: 0
Daily neural function scores, number of rats under 3 scores [13]: 2
Daily neural function scores, number of rats under 4 scores [13]: 1
Daily neural function scores, number of rats under 5 scores [13]: 0
Daily neural function scores, number of rats under 0 score [14]: 2
Daily neural function scores, number of rats under 1 score [14]: 3
Daily neural function scores, number of rats under 2 scores [14]: 3
Daily neural function scores, number of rats under 3 scores [14]: 1
Daily neural function scores, number of rats under 4 scores [14]: 0
Daily neural function scores, number of rats under 5 scores [14]: 0
Daily neural function scores, number of rats under 0 score [15]: 3
Daily neural function scores, number of rats under 1 score [15]: 2
Daily neural function scores, number of rats under 2 scores [15]: 3
Daily neural function scores, number of rats under 3 scores [15]: 0
Daily neural function scores, number of rats under 4 scores [15]: 0
Daily neural function scores, number of rats under 5 scores [15]: 0
Daily neural function scores, number of rats under 0 score [16]: 2
Daily neural function scores, number of rats under 1 score [16]: 3
Daily neural function scores, number of rats under 2 scores [16]: 3
Daily neural function scores, number of rats under 3 scores [16]: 0
Daily neural function scores, number of rats under 4 scores [16]: 0
Daily neural function scores, number of rats under 5 scores [16]: 0
Daily neural function scores, number of rats under 0 score [17]: 4
Daily neural function scores, number of rats under 1 score [17]: 3
Daily neural function scores, number of rats under 2 scores [17]: 1
Daily neural function scores, number of rats under 3 scores [17]: 0
Daily neural function scores, number of rats under 4 scores [17]: 0
Daily neural function scores, number of rats under 5 scores [17]: 0
Daily neural function scores, number of rats under 0 score [18]: 3
Daily neural function scores, number of rats under 1 score [18]: 4
Daily neural function scores, number of rats under 2 scores [18]: 1
Daily neural function scores, number of rats under 3 scores [18]: 0
Daily neural function scores, number of rats under 4 scores [18]: 0
Daily neural function scores, number of rats under 5 scores [18]: 0
rats that died during successive 6-day treatment (1 μmol/kg 5Ak once per day after 4 hours from stroke onset, ten rats): no death occurred
rats that died during successive 6-day treatment (1 μmol/kg 5Ak once per day after 6 hours from stroke onset, n=10): one
rats that died during successive 6-day treatment (1 μmol/kg 5Ak once per day after 24 hours from stroke onset, 8 rats): no death occurred
